Where “and” joins values, the source holds several entries; their conditions need not be identical. Equal values may be shown once. Entries after “also recorded” stand apart in the source; their conditions may differ. Read-outs that look alike come from different tables or passages of the source.
How the values were obtained:
MTT cytotoxicity assay = format: cell-based, human; settings: human
Method: (§1) The cytotoxicity of RSV derivatives was evaluated on A549 cells using MTT (3-(4,5-dimethylthiazol-2-yl)-2,5-diphenyl tetrazolium bromide) reagent (Sigma-Aldrich, St. Louis, MO, USA). In this assay, cells were seeded in a 96-well plate at a concentration of 2 × 10^4/well in DMEM without phenol red and supplemented with 10% FBS. The compounds were dissolved in DMSO and added to the cell monolayer. After 24 h, 10 µL of the 5 mg/mL solution of MTT was added to the cell culture, which was incubated at 37 °C for 3 h. Then, the medium was solubilized in absolute isopropanol containing 0.1 N HCl. The absorbance of converted dye was measured in an ELISA plate reader at a wavelength of 590 nm. The results were used to calculate the 50% cytotoxic concentration (CC50), defined as the concentration of RSV derivatives required to reduce cell viability by 50% compared with the solvent-treated (DMSO) control condition.

[1] = system: influenza A Puerto Rico 8/34/H1N1 (PR8) virus; assay: microbe, parasite or virus in culture; format: cell-based; settings: for IC50: Influenza A virus, A549, 24 h, read-out: IC50 (concentration causing 50% reduction in viral infection); for Selectivity Index (SI): ratio CC50/IC50, A549
[2] = system: influenza A PR/8/H1N1 virus; format: cell-based; settings: supernatants from A549 treated with 10-30 μg/mL, 24 h
[3] = system: influenza A PR/8/H1N1 virus; format: cell-based
[4] = system: influenza A PR/8/H1N1 virus; format: cell-based; remark: listed apart in the source
[5] = system: GSH-mediated antioxidant response; assay: Glutathione assay in infected A549 cells; format: cell-based, human; settings: A549, 24 h PR8 infection and treatment
Method: The total glutathione was analyzed by the Glutathione Assay Kit (ADI-900-160 Enzo) following the manufacturer’s instructions. For GSSG quantification, the samples were deproteinized with metaphosphoric acid, and an aliquot was incubated with 2-vinylpyridine to derivatize the reduced form, GSH [46]. The GSH levels were obtained by the subtraction of GSSG from the total glutathione and then normalized to the protein content of each sample determined by the Bradford method (Bio-Rad, Hercules, CA, USA).

A549 cells = assay: MTT cytotoxicity assay; format: cell-based, human
Method: as §1

GSH level = system: GSH level; design: method as in PMID 15838800; settings: infected conditions; cited from earlier work
[6] = A549, MTT, 24 h, read-out: CC50 (concentration required to reduce cell viability by 50%)

Row | SMILES | CC50 at 24 h (MTT cytotoxicity assay) | IC50 [1] | Selectivity Index (SI) [1] | rescue of GSH-mediated antioxidant response (total glutathione, GSH/GSSG) [5] | further results
1 | Oc1ccc(/C=C/c2ccccc2)cc1Cl [Compound 1] | 87.3 µg/mL and 378 µM | 20.7 µg/mL and 89 µM | 4.2 |  | 
2 | Oc1ccc(/C=C/c2ccc(Cl)cc2Cl)cc1Cl [Compound 2] | 39.5 µg/mL and 131 µM | 13.5 µg/mL and 45 µM | 2.9 |  | 
3 | Oc1ccc(/C=C/c2ccc(Cl)cc2Cl)cc1 [Compound 3] | 30.3 µg/mL and 114 µM | 12.2 µg/mL and 46 µM | 2.4 |  | 
4 | Oc1ccc(/C=C/c2ccc(C(F)(F)F)cc2)cc1Cl [Compound 4] | 38.8 µg/mL and 129 µM | 14.6 µg/mL and 48 µM | 2.6 |  | 
5 | Oc1ccc(/C=C/c2ccc(C(F)(F)F)cc2)cc1 [Compound 5] | 59 µg/mL and 223 µM | 23.4 µg/mL and 88 µM | 2.5 |  | 
6 | O=[N+]([O-])c1ccc(/C=C/c2ccc(O)c(Cl)c2)cc1 [Compound 6] |  | 17.1 µg/mL and 62 µM | 12.4 | do not rescue | HA protein expression on MDCK cells infected with supernatants [2]: markedly reduced; viral titer / viral particle production (HAU) [3]: markedly decreased; also recorded: drastically reduced; CC50 at 24 h (MTT cytotoxicity assay; [6]): 212 µg/mL and 770 µM; inhibition of HA expression [1]: 75%; early viral nucleoprotein (NP) expression [4]: decrease
7 | O=[N+]([O-])c1ccc(/C=C/c2ccc(O)cc2)cc1 [Compound 7] |  | 19.5 µg/mL and 80 µM | 5.9 | do not rescue | HA protein expression on MDCK cells infected with supernatants [2]: markedly reduced; viral titer / viral particle production (HAU) [3]: markedly decreased; also recorded: drastically reduced; CC50 at 24 h (MTT cytotoxicity assay; [6]): 116 µg/mL and 481 µM; early viral nucleoprotein (NP) expression [4]: decrease
8 | N#Cc1ccc(/C=C/c2ccc(O)cc2)cc1 [Compound 8] | 92 µg/mL and 415 µM | 45.1 µg/mL and 203 µM | 2 |  | 
9 | COc1ccc(/C=C/c2ccc(O)cc2)cc1 [Compound 9] | 106 µg/mL and 466 µM | 31.7 µg/mL and 104 µM | 3.3 |  | 
10 | O=[N+]([O-])c1ccc(/C=C/c2ccc(O)c(Br)c2)cc1 [Compound 12, (E)-2-Bromo-4-(4-Nitrostyryl)Phenol] |  |  |  | do not rescue | melting point: 200.2 to 200.4 °C; cytotoxicity on the A549 cell monolayer (A549 cells): did not show cytotoxicity
11 | O=[N+]([O-])c1cc(/C=C/c2ccc(Cl)cc2)ccc1O [Compound 13, (E)-4-(4-Chlorostyryl)-2-Nitrophenol] |  |  |  | do not rescue | melting point: 176.5 to 177.9 °C; cytotoxicity on the A549 cell monolayer (A549 cells): did not show cytotoxicity; early viral nucleoprotein (NP) expression [4]: decrease
12 | Oc1ccc(C=Cc2cc(O)cc(O)c2)cc1 [RSV, 3,4′,5-trihydroxystilbene] |  |  |  |  | rescue of GSH level (GSH level): did not rescue

— article PMC9505218, “Nitrostilbenes: Synthesis and Biological Evaluation as Potential Anti-Influenza Virus Agents” (Pharmaceuticals, 2022)
